In brackets after ≈: the same amount, converted by molar mass. Like-named read-outs stand apart in the source and are kept apart here.
Experiments:
[1] = test system: Enterobacterales; assay: MIC, broth microdilution, CDC/FDA Antibiotic Resistance Isolate Bank (Example 7, Tables 8, 11, 12); assay type: cell-based; conditions: for MIC: read-out: MIC
[2] = test system: A. baumannii; assay: MIC, broth microdilution, CDC/FDA Antibiotic Resistance Isolate Bank (Example 7, Tables 9, 13, 14); assay type: cell-based, Acinetobacter baumannii; conditions: for MIC: read-out: MIC
[3] = MIC distribution, metallo-β-lactamase-producing A. baumannii, inhibitor µg/mL in parentheses

Compound: C[C@H]1COc2c(N3CCN(C)CC3)c(F)cc3c(=O)c(C(=O)O)cn1c23 [Levofloxacin, levofloxacin]
- MIC ([1]; Klebsiella pneumoniae, KUB No. 5638, AR Bank # 141): 8 µg/mL (≈ 22.1 µM)
- MIC ([1]; Klebsiella pneumoniae, KUB No. 5639, AR Bank # 142): 8 µg/mL (≈ 22.1 µM)
- MIC ([1]; Klebsiella pneumoniae, KUB No. 5640, AR Bank # 143): 64 µg/mL (≈ 177 µM)
- MIC ([1]; Klebsiella pneumoniae, KUB No. 5642, AR Bank # 145): 32 µg/mL (≈ 88.6 µM)
- MIC ([1]; Klebsiella pneumoniae, KUB No. 5643, AR Bank # 146): 64 µg/mL (≈ 177 µM)
- MIC ([1]; Klebsiella pneumoniae, KUB No. 5645, AR Bank # 148): 64 µg/mL (≈ 177 µM)
- MIC ([1]; Klebsiella pneumoniae, KUB No. 5649, AR Bank # 152): 32 µg/mL (≈ 88.6 µM)
- MIC ([1]; Klebsiella pneumoniae, KUB No. 5650, AR Bank # 153): > 64 µg/mL
- MIC ([1]; Klebsiella pneumoniae, KUB No. 5655, AR Bank # 158): 16 µg/mL (≈ 44.3 µM)
- MIC ([1]; Klebsiella pneumoniae, KUB No. 5657, AR Bank # 160): 0.12 µg/mL (≈ 0.332 µM)
- MIC ([1]; Klebsiella pneumoniae, KUB No. 5757, AR Bank # 361): 64 µg/mL (≈ 177 µM)
- MIC ([1]; Klebsiella pneumoniae, KUB No. 5759, AR Bank # 363): 64 µg/mL (≈ 177 µM)
- MIC ([1]; Klebsiella pneumoniae, KUB No. 5760, AR Bank # 364): 64 µg/mL (≈ 177 µM)
- MIC ([1]; Klebsiella pneumoniae, KUB No. 5772, AR Bank # 376): 16 µg/mL (≈ 44.3 µM)
- MIC ([1]; Klebsiella pneumoniae, Klebsiella pneumoniae KUB No. 5784, AR Bank #438): 64 µg/mL (≈ 177 µM)
- MIC ([1]; Klebsiella pneumoniae, Klebsiella pneumoniae KUB No. 5797, AR Bank #453): 64 µg/mL (≈ 177 µM)
- MIC ([1]; Klebsiella pneumoniae, Klebsiella pneumoniae KUB No. 5809, AR Bank #504): 0.5 µg/mL (≈ 1.38 µM)
- MIC ([1]; Klebsiella pneumoniae, Klebsiella pneumoniae KUB No. 5810, AR Bank #505): 1 µg/mL (≈ 2.77 µM)
- MIC ([1]; Klebsiella pneumoniae, Klebsiella pneumoniae KUB No. 5811, AR Bank #506): 4 µg/mL (≈ 11.1 µM)
- MIC ([1]; Klebsiella pneumoniae, Klebsiella pneumoniae KUB No. 5812, AR Bank #507): > 64 µg/mL
- MIC ([1]; Klebsiella pneumoniae, Klebsiella pneumoniae KUB No. 5827, AR Bank #522): 32 µg/mL (≈ 88.6 µM)
- MIC ([1]; Klebsiella pneumoniae, Klebsiella pneumoniae KUB No. 5828, AR Bank #523): 4 µg/mL (≈ 11.1 µM)
- MIC ([1]; Klebsiella pneumoniae, Klebsiella pneumoniae KUB No. 5829, AR Bank #524): 32 µg/mL (≈ 88.6 µM)
- MIC ([1]; Klebsiella pneumoniae, Klebsiella pneumoniae KUB No. 5830, AR Bank #525): 64 µg/mL (≈ 177 µM)
- MIC ([1]; Kluyvera ascorbata, KUB No. 5641, AR Bank # 144): 2 µg/mL (≈ 5.53 µM)
- MIC ([1]; Morganella morganii, KUB No. 5554, AR Bank# 57): 8 µg/mL (≈ 22.1 µM)
- MIC ([1]; Morganella morganii, KUB No. 5630, AR Bank # 133): 64 µg/mL (≈ 177 µM)
- MIC ([1]; Morganella morganii, Morganella morganii KUB No. 5824, AR Bank #519): 0.12 µg/mL (≈ 0.332 µM)
- MIC ([1]; Proteus mirabilis, KUB No. 5556, AR Bank# 59): 8 µg/mL (≈ 22.1 µM)
- MIC ([1]; Proteus mirabilis, KUB No. 5652, AR Bank # 155): > 64 µg/mL
- MIC ([1]; Proteus mirabilis, KUB No. 5653, AR Bank # 156): 2 µg/mL (≈ 5.53 µM)
- MIC ([1]; Proteus mirabilis, KUB No. 5656, AR Bank # 159): 2 µg/mL (≈ 5.53 µM)
- MIC ([1]; Proteus mirabilis, KUB No. 5773, AR Bank # 377): 16 µg/mL (≈ 44.3 µM)
- MIC ([1]; Proteus mirabilis, KUB No. 5775, AR Bank # 379): 4 µg/mL (≈ 11.1 µM)
- MIC ([1]; Raoultella ornithinolvtica, KUB No. 5631, AR Bank # 134): 0.5 µg/mL (≈ 1.38 µM)
- MIC ([1]; Salmonella enterica, Salmonella Senftenberg, KUB No. 5624, AR Bank # 127): 32 µg/mL (≈ 88.6 µM)
- MIC ([1]; Serratia marcescens, KUB No. 5596, AR Bank # 99): 0.25 µg/mL (≈ 0.692 µM)
- MIC ([1]; Serratia marcescens, KUB No. 5618, AR Bank # 121): 0.12 µg/mL (≈ 0.332 µM)
- MIC ([1]; Serratia marcescens, KUB No. 5619, AR Bank # 122): 0.5 µg/mL (≈ 1.38 µM)
- MIC ([1]; Serratia marcescens, KUB No. 5620, AR Bank # 123): 0.25 µg/mL (≈ 0.692 µM)
- MIC ([1]; Serratia marcescens, KUB No. 5621, AR Bank # 124): 0.5 µg/mL (≈ 1.38 µM)
- MIC ([1]; Serratia marcescens, KUB No. 5627, AR Bank # 130): 0.12 µg/mL (≈ 0.332 µM)
- MIC ([1]; Serratia marcescens, KUB No. 5628, AR Bank # 131): 0.5 µg/mL (≈ 1.38 µM)
- MIC ([1]; Serratia marcescens, Serratia marcescens KUB No. 5825, AR Bank #520): 0.5 µg/mL (≈ 1.38 µM)
- MIC ([1]; Serratia marcescens, Serratia marcescens KUB No. 5826, AR Bank #521): 16 µg/mL (≈ 44.3 µM)
- MIC50 ([1]; carbapenemase-producing Enterobacterales, Metallo-β-lactamase (N = 47), read-out: MIC50): 32 µg/mL (≈ 88.6 µM)
- MIC90 ([1]; carbapenemase-producing Enterobacterales, Metallo-β-lactamase (N = 47), read-out: MIC90): > 64 µg/mL
- MIC ([2]; Acinetobacter baumannii, KUB No. 5719, AR Bank #286): 8 µg/mL (≈ 22.1 µM)
- MIC ([2]; Acinetobacter baumannii, KUB No. 5720, AR Bank #287): 16 µg/mL (≈ 44.3 µM)
- MIC ([2]; Acinetobacter baumannii, KUB No. 5721, AR Bank #288): > 64 µg/mL
- MIC ([2]; Acinetobacter baumannii, KUB No. 5722, AR Bank #259): 16 µg/mL (≈ 44.3 µM)
- MIC ([2]; Acinetobacter baumannii, KUB No. 5723, AR Bank #290): 8 µg/mL (≈ 22.1 µM)
- MIC ([2]; Acinetobacter baumannii, KUB No. 5724, AR Bank #291): 8 µg/mL (≈ 22.1 µM)
- MIC ([2]; Acinetobacter baumannii, KUB No. 5725, AR Bank #292): 4 µg/mL (≈ 11.1 µM)
- MIC ([2]; Acinetobacter baumannii, KUB No. 5726, AR Bank #293): 4 µg/mL (≈ 11.1 µM)
- MIC ([2]; Acinetobacter baumannii, KUB No. 5727, AR Bank #294): 32 µg/mL (≈ 88.6 µM)
- MIC ([2]; Acinetobacter baumannii, KUB No. 5728, AR Bank #295): 16 µg/mL (≈ 44.3 µM)
- MIC ([2]; Acinetobacter baumannii, KUB No. 5729, AR Bank #296): 32 µg/mL (≈ 88.6 µM)
- MIC ([2]; Acinetobacter baumannii, KUB No. 5730, AR Bank #297): 32 µg/mL (≈ 88.6 µM)
- MIC ([2]; Acinetobacter baumannii, KUB No. 5731, AR Bank #298): 8 µg/mL (≈ 22.1 µM)
- MIC ([2]; Acinetobacter baumannii, KUB No. 5732, AR Bank #299): 64 µg/mL (≈ 177 µM)
- MIC ([2]; Acinetobacter baumannii, KUB No. 5733, AR Bank #300): 64 µg/mL (≈ 177 µM)
- MIC ([2]; Acinetobacter baumannii, KUB No. 5734, AR Bank #301): 16 µg/mL (≈ 44.3 µM)
- MIC ([2]; Acinetobacter baumannii, KUB No. 5735, AR Bank #302): > 64 µg/mL
- MIC ([2]; Acinetobacter baumannii, KUB No. 5736, AR Bank #303): 16 µg/mL (≈ 44.3 µM)
- MIC ([2]; Acinetobacter baumannii, KUB No. 5737, AR Bank #304): 16 µg/mL (≈ 44.3 µM)
- MIC ([2]; Acinetobacter baumannii, KUB No. 5738, AR Bank #305): 16 µg/mL (≈ 44.3 µM)
- MIC ([2]; Acinetobacter baumannii, KUB No. 5739, AR Bank #306): 32 µg/mL (≈ 88.6 µM)
- MIC ([2]; Acinetobacter baumannii, KUB No. 5740, AR Bank #307): 16 µg/mL (≈ 44.3 µM)
- MIC ([2]; Acinetobacter baumannii, KUB No. 5741, AR Bank #308): 16 µg/mL (≈ 44.3 µM)
- MIC ([2]; Acinetobacter baumannii, KUB No. 5742, AR Bank #309): 64 µg/mL (≈ 177 µM)
- MIC ([2]; Acinetobacter baumannii, KUB No. 5743, AR Bank #310): 32 µg/mL (≈ 88.6 µM)
- MIC ([2]; Acinetobacter baumannii, KUB No. 5744, AR Bank #311): 4 µg/mL (≈ 11.1 µM)
- MIC ([2]; Acinetobacter baumannii, KUB No. 5745, AR Bank #312): 4 µg/mL (≈ 11.1 µM)
- MIC ([2]; Acinetobacter baumannii, KUB No. 5746, AR Bank #313): 8 µg/mL (≈ 22.1 µM)
- MIC50 ([2]; Acinetobacter baumannii, 55 isolates of A. baumannii, read-out: MIC50): 16 µg/mL (≈ 44.3 µM)
- MIC80 ([2]; Acinetobacter baumannii, 55 isolates of A. baumannii, read-out: MIC80): 32 µg/mL (≈ 88.6 µM)
- MIC90 ([2]; Acinetobacter baumannii, 55 isolates of A. baumannii, read-out: MIC90): 64 µg/mL (≈ 177 µM)
- Number of isolates at MIC 8 µg/mL [2, 3]: 3
- Number of isolates at MIC 16 µg/mL [2, 3]: 1

— patent EP4635500A1, “THERAPEUTIC AGENT FOR BACTERIAL INFECTION” (Sumitomo Pharma Co., Ltd., priority 2022, dated 2024)
